Test results: patent US20130064899A1, “SYNERGISTIC BIOCIDE COMPOSITION CONTAINING AT LEAST THREE BIOCIDE COMPONENTS” (THOR GMBH, priority 2010, published 2013)
Marks after values point to notes of the source that are not given here.

What was measured:
[1] = tested on: Candida lipolytica (DSM 3286); experiment: Minimum inhibitory concentration and synergy index in Sabouraud maltose broth, Candida lipolytica; format: cell-based; conditions: 72 hours at 25° C.; for SI (synergy index = Qa/QA + Qb/QB): below 1 = synergism
Protocol: (§1) A test was made of the synergism of a combination of BIT, zinc pyrithione or sodium pyrithione, and silver. The test organisms used were the yeasts Candida albicans (DSM 1386) and Candida lipolytica (DSM 3286). For the test, mixtures with different compositions of BIT, zinc pyrithione or sodium pyrithione, and silver were prepared and were tested for their activity on Candida albicans and Candida lipolytica.
(§2) The individual actives or actives mixtures were mixed in serial concentration series with nutrient broth (Sabouraud maltose broth) and inoculated with the respective test organisms. The cell density in the overall batch was in each case 10^6 microbes per ml.
(§3) The incubation time was 72 hours at 25° C. on a shaker at 120 rpm. This was followed by inspection for growth of Candida albicans and Candida lipolytica.
(§4) This method was used to determine the minimum inhibitory concentrations (MICS) of the combination Ag+BIT and ZnPy or NaPy, with Ag and BIT always being present in a 1:20 ratio. The MIC is the concentration at which there is no longer any hazing of the nutrient solution.
(§5) The synergism which occurred was represented numerically by calculation of the synergy index (SI). The calculation was made according to the common method of F. C. Kull et al., Applied Microbiology, vol. 9 (1961), p. 538. The SI variant was given by the following formula:
Synergy index SI=Qa/QA+Qb/QB
When this formula is applied to the BIT+pyrithione+silver biocide system tested here, the variables in the formula have the following definition: • Qa=Concentration of Ag+BIT in the Ag+BIT and ZnPy mixture • QA=Concentration of Ag+BIT as sole biocide • Qb=Concentration of ZnPy in the Ag+BIT and ZnPy mixture • QB=Concentration of ZnPy as sole biocide
If the synergy index has a value of more than 1, this means that antagonism is present. If the synergy index adopts a value of 1, this means that the two biocides have an additive effect.

[2] = tested on: Candida albicans (DSM 1386); experiment: Minimum inhibitory concentration and synergy index in Sabouraud maltose broth, Candida albicans; format: cell-based; conditions: 72 hours at 25° C.
Protocol: as §1, §2, §3, §4, §5
Synergy index SI=Qa/QA+Qb/QB […]

[3] = concentration of ZnPy in the Ag + BIT and ZnPy mixture, *2 = QB, ZnPy as sole biocide

Compound | SI (synergy index = Qa/QA + Qb/QB) ([1]; NaPy series) | MIC Qb (NaPy) ([1]; concentration of NaPy in the Ag + BIT and NaPy mixture, *2 = QB, NaPy as sole biocide) | SI (synergy index = Qa/QA + Qb/QB) ([2]; below 1 = synergism) | MIC Qb (ZnPy) [2, 3] | SI (synergy index = Qa/QA + Qb/QB) ([1]; ZnPy series) | MIC Qb (ZnPy) [1, 3]
[Na+].[O-][n+]1ccccc1[S-] [NaPy, sodium pyrithione] | 1.00 | 30*^2 ppm |  |  |  | 
zinc pyrithione [ZnPy] |  |  | 1.00 | 7.5*^2 ppm | 1.00 | 7.5*^2 ppm
